PMC8228121, “Super-Cationic Peptide Dendrimers—Synthesis and Evaluation as Antimicrobial Agents” (Antibiotics, 2021)
≈ marks a conversion by molar mass, not a printed value. Read-outs that look alike come from different tables or passages of the source. Bridge positions count the residues as written; N and C are the ends. Side chains are listed from the residue outwards. Peptide text beside a SMILES is read from it. I, II: the chains in the order shown.

Legend:
B. subtilis ATCC 6051 = experiment: microbe, parasite or virus in culture; assay type: cell-based, Bacillus subtilis
Experimental: (§1) Clinical isolates of CRE, MRSA and VRE were obtained from Lancet Laboratories, Durban, South Africa, with approval BE394/15 from the Biomedical Research Ethical Committee of the University of KwaZulu-Natal. Five reference strains of bacteria, namely Escherichia coli ATCC 25922, Pseudomonas aeruginosa ATCC 27853, Enterococcus faecium ATCC 35667, Staphylococcus aureus ATCC 29213 and Bacillus subtilis ATCC 6051 were supplied by the American Type Culture Collection (ATCC).
(§2) MIC values were determined by the broth microdilution method and the significance of the values obtained was interpreted following the guidelines of the Clinical and Laboratory Standards for Antimicrobial Susceptibility Testing.. The effect of human serum on the antimicrobial effect of the molecules tested was determined in a similar way to the MIC method used above in a solution of 50% human serum plus Mueller–Hinton broth.

E. faecium ATCC 35667 = experiment: microbe, parasite or virus in culture; assay type: cell-based, Enterococcus faecium
Experimental: as §1, §2

P. aeruginosa ATCC 27853 = experiment: microbe, parasite or virus in culture; assay type: cell-based, Pseudomonas aeruginosa
Experimental: as §1, §2

S. aureus ATCC 29213 = experiment: microbe, parasite or virus in culture; assay type: cell-based, Staphylococcus aureus
Experimental: as §1, §2

CRE, E. coli isolates = experiment: microbe, parasite or virus in culture; assay type: cell-based; details: Escherichia coli
Experimental: as §1, §2

E. coli ATCC 25822 = experiment: microbe, parasite or virus in culture; assay type: cell-based, Escherichia coli
Experimental: as §1, §2

in vitro = details: human
Experimental: (§3) Cell viability was evaluated using the colorimetric MTT assay [21]. Human hepatocarcinoma (HepG2) cells and human embryonic kidney 293 (HEK-293) cells used in the drug toxicity assays were obtained from Cellonex (Johannesburg, South Africa). Viable HepG2 and HEK293 cells (20,000 cells/well) were seeded into a 96-well microtiter plate (200 µL) and allowed to attach overnight. The cells were exposed to varying concentrations of the peptides for 24 h. After removal of the treatment medium, 20 µL of MTT salt solution (5 mg/mL in 0.1M phosphate buffer saline (PBS)) and 100 µL of complete cell culture medium (CCM) were added to each well. After a 4 h (37 °C) incubation, the MTT salt solution was discarded and 100 μL of dimethyl sulphoxide (DMSO) were added to each well (1 h, 37 °C). The optical density of the solubilized formazan product was measured at 570 nm (reference λ of 690 nm) using a Bio-tek μQuant spectrophotometer (Winooski, VT, USA). […] GraphPad Prism (V5) (La Jolla, CA, USA) was used to obtain the half maximum inhibitory concentration (IC50) for each compound.

P. aeruginosa [1] = experiment: Time–kill curves; assay type: cell-based
Experimental: Killing curve assays were performed with a starting inoculum of 6 × 10^6 CFU/mL. […] Antimicrobials were added to 5 mL of bacteria in the exponential phase of growth and incubated at 37 °C with shaking. Samples were obtained aseptically at 0, 1, 2, 4, 6 and 24 h, diluted in Ringer 1/4 and plated on TSA for colony counting. The response of microbial strains to a single antimicrobial was determined by lowering logarithms of viable bacteria. In accordance with Lora-Tamayo et al., an antimicrobial was considered active when a reduction of ≥1 log10 relative to the initial inoculum was observed.

MTT cytotoxicity assay = assay type: cell-based, human; details: human, HepG2 cells, HepG2, 24 h exposure
Experimental: as §3

P. aeruginosa [2] = experiment: Effect on bacterial growth curves; assay type: cell-based; details: at ½ MIC or ¼ MIC
Experimental: The study of the growth dynamic of the S. aureus, E. coli and P.aeruginosa strains against CAMPDs were assayed with a starting inoculum of 10^6–10^8 CFU/mL in a 10 mL specific falcon tube. The experiment was performed by a real-time reverse-spin bioreactor RTS-1 (Biosan SIA, Riga, Latvia) that applies non-invasive, mechanically driven rotation; thus, the cell suspension is mixed efficiently, mixing and oxygening the culture at 37 °C. Cell growth kinetics were recorded non-invasively in real time from data obtained from a near-infrared optical system, every 15 min.

[3] = system: MRSA (methicillin-resistant S. aureus) isolates; experiment: microbe, parasite or virus in culture; assay type: cell-based; details: methicillin-resistant ) isolates
Experimental: as §1, §2

| MIC (B. subtilis ATCC 6051; ATCC 6051) [µg/mL] | MIC (E. faecium ATCC 35667; ATCC 35667) [µg/mL] | MIC (P. aeruginosa ATCC 27853; ATCC 27853) [µg/mL] | MIC (S. aureus ATCC 29213; ATCC 29213) [µg/mL] | IC50 at 24 h (in vitro) [µg/mL] | MIC (E. coli ATCC 25822; ATCC 25822) [µg/mL] | Compound | MBC (B. subtilis ATCC 6051; ATCC 6051) [µg/mL] | MBC (E. faecium ATCC 35667; ATCC 35667) [µg/mL] | MBC (P. aeruginosa ATCC 27853; ATCC 27853) [µg/mL] | MBC (S. aureus ATCC 29213; ATCC 29213) [µg/mL] | IC50 at 24 h (MTT cytotoxicity assay) [µg/mL] | MBC (E. coli ATCC 25822; ATCC 25822) [µg/mL] | other results |
| --- | --- | --- | --- | --- | --- | --- | --- | --- | --- | --- | --- | --- | --- |
| – | – | – | – | – | – | C[C@@H](O)[C@H]1C(=O)N2C(C(=O)O)=C(S[C@@H]3CN[C@H](C(=O)N(C)C)C3)[C@H](C)[C@H]12 [Meropenem, reference compound] | – | – | – | – | – | – | MIC (B. subtilis ATCC 6051; Bacillus subtilis, ATCC6051, B. subtilis ATCC 6051, read-out: MIC): 0.062 µg/mL (≈ 0.162 µM); MIC (E. faecium ATCC 35667; Enterococcus faecium, ATCC35667, E. faecium ATCC 35667, read-out: MIC): < 0.25 µg/mL; MIC (P. aeruginosa ATCC 27853; Pseudomonas aeruginosa, ATCC27853, P. aeruginosa ATCC 27853, read-out: MIC): 1 µg/mL (≈ 2.61 µM); MIC (S. aureus ATCC 29213; Staphylococcus aureus, ATCC29213, S. aureus ATCC 29213, read-out: MIC): 0.25 µg/mL (≈ 0.652 µM); MIC (CRE, E. coli isolates; CRE E. coli isolate IMP JAP): 8 µg/mL (≈ 20.9 µM); MIC (CRE, E. coli isolates; CRE E. coli isolate KPC L2l): 16 µg/mL (≈ 41.7 µM); MIC (CRE, E. coli isolates; CRE E. coli isolate NDM4-FEK): > 32 µg/mL; MIC (CRE, E. coli isolates; CRE E. coli isolate OXA-48 501): 2 µg/mL (≈ 5.22 µM); MIC (CRE, E. coli isolates; CRE E. coli isolate VIM-1 BM-12): > 32 µg/mL; MIC (E. coli ATCC 25822; Escherichia coli, ATCC25822): 0.125 µg/mL (≈ 0.326 µM) |
| 16 (≈ 4.49 µM) | 16 (≈ 4.49 µM) | 64 (≈ 18 µM) | 32 (≈ 8.98 µM) | 67.4 (≈ 18.9 µM) | 64 (≈ 18 µM) | CC(C)C[C@H](NC(=O)[C@H](CC(C)C)NC(=O)[C@H](CCCNC(=N)N)NC(=O)[C@H](CC(C)C)NC(=O)[C@H](CC(C)C)NC(=O)[C@H](CCCCNC(=O)[C@H](CCCNC(=N)N)NC(=O)[C@H](CC(C)C)NC(=O)[C@H](CCCNC(=N)N)NC(=O)[C@H](CCCCNC(=O)[C@H](CCCNC(=N)N)NC(=O)[C@H](CC(C)C)NC(=O)[C@@H](N)CCCNC(=N)N)NC(=O)[C@H](CCCNC(=N)N)NC(=O)[C@H](CC(C)C)NC(=O)[C@@H](N)CCCNC(=N)N)NC(=O)[C@H](CCCNC(=N)N)NC(=O)[C@H](CC(C)C)NC(=O)[C@H](CCCNC(=N)N)NC(=O)[C@H](CCCCNC(=O)[C@H](CCCNC(=N)N)NC(=O)[C@H](CC(C)C)NC(=O)[C@@H](N)CCCNC(=N)N)NC(=O)[C@H](CCCNC(=N)N)NC(=O)[C@H](CC(C)C)NC(=O)[C@@H](N)CCCNC(=N)N)C(N)=O [G2RLR-L2RL2, (RLR)4(KRLR)2KLLRLL-NH2] (I: H-RLRK([Arg-Leu-Arg])RLRKLLRLL-NH2 / II: H-RLRK([Arg-Leu-Arg])RLR; amide I:8-II:C) | 16 (≈ 4.49 µM) | 16 (≈ 4.49 µM) | 64 (≈ 18 µM) | 32 (≈ 8.98 µM) | 102 (≈ 28.7 µM) | 64 (≈ 18 µM) | time–kill: effect on bacterial population (P. aeruginosa [1]; at MIC): reduced the bacterial population to almost zero and no regrowth was appreciated after 24 h; time–kill: effect on bacterial population (P. aeruginosa [1]; at ¼ MIC): the bacterial population remained partially inhibited at the beginning of the exposure; time–kill: effect on bacterial population (P. aeruginosa [1]; at ½ MIC): reduced the bacterial population to almost zero and no regrowth was appreciated after 24 h |
| 8 (≈ 2.5 µM) | 32 (≈ 10 µM) | 8 to 16 | 32 (≈ 10 µM) | 116 (≈ 36.2 µM) | 16 (≈ 5 µM) | CC(C)C[C@H](NC(=O)[C@H](CC(C)C)NC(=O)[C@H](CCCCN)NC(=O)[C@H](CC(C)C)NC(=O)[C@H](CC(C)C)NC(=O)[C@H](CCCCNC(=O)[C@H](CCCCN)NC(=O)[C@H](CC(C)C)NC(=O)[C@H](CCCCN)NC(=O)[C@H](CCCCNC(=O)[C@H](CCCCN)NC(=O)[C@H](CC(C)C)NC(=O)[C@@H](N)CCCCN)NC(=O)[C@H](CCCCN)NC(=O)[C@H](CC(C)C)NC(=O)[C@@H](N)CCCCN)NC(=O)[C@H](CCCCN)NC(=O)[C@H](CC(C)C)NC(=O)[C@H](CCCCN)NC(=O)[C@H](CCCCNC(=O)[C@H](CCCCN)NC(=O)[C@H](CC(C)C)NC(=O)[C@@H](N)CCCCN)NC(=O)[C@H](CCCCN)NC(=O)[C@H](CC(C)C)NC(=O)[C@@H](N)CCCCN)C(N)=O [G2KLK-L2KL2, (KLK)4(KKLK)2KLLKLL-NH2] (I: H-KLKK([Lys-Leu-Lys])KLKKLLKLL-NH2 / II: H-KLKK([Lys-Leu-Lys])KLK; amide I:8-II:C) | 8 (≈ 2.5 µM) | 32 (≈ 10 µM) | 16 (≈ 5 µM) | 32 (≈ 10 µM) | 124 (≈ 38.7 µM) | 32 (≈ 10 µM) | effect on growth curve (P. aeruginosa [2]): less capacity to delay growth; MIC [3]: 64 µg/mL (≈ 20 µM) |
